US20230340061A1, “PEPTIDES AND METHODS FOR THE TREATMENT OF MULTIPLE SCLEROSIS” (IMCYSE SA, priority 2020, published 2023)

Legend:
[1] = tested on: CD4+ T cells of patients with multiple sclerosis; assay: Cytokine secretion in CD4+ T cell culture supernatants (LEGENDplex Human Th Panel); assay type: cell-based; conditions: for specific secretion of cytokine (IL-5): culture supernatant of MS017 (S15) CD4+ cell line, P4 vs C-WT epitope peptides
Text: (§1) Naïve CD4+ T cells were also purified from the CD14- PBMCs fraction by performing negative immunomagnetic separation with naïve CD4+ T cell isolation kit (Miltenyi Biotec, 130-094-131) according to the supplier recommendations. Naïve CD4+ T cells were co-cultured with autologous mDC or LCL in the presence of P2 and P4 peptides. The CD4+ T cells were re-stimulated periodically, about every 10-12 days.
The ability of the peptides to induce cytokines secretion in CD4+ T cells culture supernatants was evaluated by flow cytometry analysis after overnight co-culture at resting state with autologous mDC without (no peptide) or with the peptides (P2 or P4). Supernatants were analyzed with the LEGENDplex Human Th Panel (13-plex) (BioLegend, 740721) according to the supplier recommendations.

[2] = tested on: CD4+ T cells of patients with multiple sclerosis; assay: Generation of antigen specific CD4+ T cells, CD154 (CD40L) expression by flow cytometry; assay type: cell-based, human
Experimental: PBMCs were isolated from blood samples of patients with multiple sclerosis treated by dimethyl fumarate (DMF) on Lymphoprep density gradients.
CD14+ monocytes were isolated from these PBMCs by performing positive immunomagnetic separation with CD14 microbeads (Miltenyi Biotec, 130-050-201) according to the supplier recommendations. CD14+ monocytes were cultured for six days and maturated to generate autologous dendritic cells (mDC). CD19+ B cells were isolated from the CD14- PBMCs fraction by performing positive immunomagnetic separation with CD19 microbeads (Miltenyi Biotec, 130-050-301) according to the supplier recommendations. CD19+ B cells were cultured and immortalized with EBV to generate autologous lymphoblastoid cell lines (LCL).
as §1
The ability of the peptides to generate antigen specific CD4+ T cells was evaluated by flow cytometry analysis of the TCR induced surface activation marker CD154 (CD40L) expression after overnight co-culture at resting state with autologous LCL without (no peptide) or with the peptides (P2 or P4). The surface expression of the lytic marker Fas ligand (CD178) was also evaluated by flow cytometry analysis after overnight co-culture at resting state with autologous LCL without (no peptide) or with the peptide (P4).

[3] = tested on: Experimental Auto-Immune Encephalomyelitis (EAE); assay: Prophylactic administration in adoptive-transfer EAE; assay type: in vivo, mice; conditions: 100 μg s.c. with alum, days −21, −14, −7, +2, +9
Experimental: EAE was induced in recipient mice by immunizing donor B6.SJL mice with MOG35-55/CFA, and then, 11 days later, by taking their spleens and restimulating them in culture with MOG35-55 peptide for 3 days. Those cells, now fully encephalitogenic, were injected on Day 0 into recipient groups of mice, which developed EAE.
B6.SJL donor mice were acclimated for 13 days before the start of the study and were 9 weeks old at the time of immunization. Donor mice were used to generate encephalitogenic cells as follows: • Day −14: Immunization with MOG35-55/CFA. • Day −3: Spleen harvest. Mice were euthanized and spleens were harvested, pooled and cell suspension prepared. Cell suspension, at 4 to 5 million cells/mL in T150 flasks, were set up in cultures in the presence of MOG35-55 peptide (20 μg/mL), IL-12 ([…]) and anti-IFNγ (7 μg/mL) for 3 days to generate encephalitogenic T cells. • Day 0: Cell collection and transfer. Cells were collected and spun down, resuspended in RPM11640 (no FCS), counted, and injected into recipient mice at 10 million cells per mouse.
Recipient mice were acclimated for 6 days prior to the first injection and were 6 weeks old when treatment started (on Day −21). Mice were assigned to groups in a balanced manner, to achieve similar average weight across the groups at the start of the study.
Dosing of all mice was performed once on each of the days indicated in Table 4, s.c., at a volume of 0.05 mL/site, each mouse receiving injection at two sites, for a total of 0.1 mL/mouse/dosing day, corresponding to 100 μg of peptide.
For Vehicle treatment, Imject™ Alum solution was prepared at each dosing day. IMCY-0189 has the sequence described in example 6. Lyophilized IMCY-0189 was thawed at room temperature for 10 minutes, resuspended in Na Acetate buffer 50 mM pH 5.4 and incubated at room temperature for 5 minutes. Reconstituted peptide was then mixed with Imject™ Alum Adjuvant before injection.
At termination, blood was collected from all mice into tubes containing K2EDTA and mixed gently. Blood was then centrifuged at ˜10000 g for 5 minutes. Plasma was transferred into Eppendorf tubes and stored at −80° C. until shipment to Quanterix™. Plasma Neurofilament light (NF-L) protein levels were quantified using Simoa© NF-light Advantage kit as described in example 6.
EAE scoring, terminal collection, histology analyses and statistical analyses were performed as described in example 6.

[4] = tested on: Experimental Auto-Immune Encephalomyelitis (EAE); assay: Therapeutic administration in MOG35-55-induced EAE; assay type: in vivo; conditions: 30 μg s.c. with alum, days 4, 9, 14, 19
Experimental: The study used a total of 48 female C57BL/6 mice (Taconic Biosciences, 9 weeks old on Day 0). Mice were acclimated for 7 days prior to the first injection. Mice were assigned to groups in a balanced manner to achieve similar average weight across the groups at the start of the study.
Dosing of all mice was performed once on each of the days indicated in Table 2, s.c., at a volume of 0.05 mL/site, each mouse receiving injection at two sites, for a total of 0.1 mL/mouse/dosing day. IMCY-0189 or P4 peptide total dose was 30 μg per administration.
Lyophilized immunogenic peptide IMCY-0189 with the sequence […] (SEQ ID NO: 260), comprising an oxidoreductase motif HCPYC (SEQ ID NO: 24), a linker GW, a murine Myelin Oligodendrocyte Glycoprotein (MOG35-55) MHCII T cell epitope […] (SEQ ID NO: 261) and a flanking sequence HLYR (SEQ ID NO: 262) (Smart Bioscience) was solubilized immediately before use. Lyophilized IMCY-0189 was thawed at room temperature for 10 minutes, resuspended in Na Acetate buffer 50 mM NaCl 0.9% pH 5.4 and incubated at room temperature for 10 minutes. Reconstituted peptide was then mixed with Imject™ Alum Adjuvant before injection.
Lyophilized immunogenic peptide P4 with the sequence […] (SEQ ID NO: 27), comprising an oxidoreductase motif KHCPYC (SEQ ID NO: 50), a linker VRY, a human Myelin Oligodendrocyte Glycoprotein (MOG201-212) MHCII T cell epitope […] (SEQ ID NO: 2) and a flanking sequence TLFKK (SEQ ID NO: 263) (Smart Bioscience) was solubilized immediately before use. Lyophilized P4 was thawed at room temperature for 10 minutes, resuspended in Na Acetate buffer 50 mM NaCl 0.9% pH 5.4 and incubated at room temperature for 10 minutes. Reconstituted peptide was then mixed with Imject™ Alum Adjuvant before injection.
EAE was induced in all mice as follows: • Day 0, Hour 0—Immunization with a peptide corresponding to the amino acids 35-55 of MOG (MOG35-55)/CFA • Day 0, Hour 2—Injection of pertussis toxin • Day 1, Hour 0—2nd injection of pertussis toxin (24 hours after initial immunization).
Mice were injected subcutaneously at two sites in the back with the emulsion component (containing MOG35-55) of Hooke Kit™ MOG35-55/CFA Emulsion PTX, catalog number EK-2110 (lot #131, Hooke Laboratories, Lawrence MA). One site of injection was in the area of upper back, approximately 1 cm caudal of the neck line. The second site was in the area of lower back, approximately 2 cm cranial of the base of the tail. The injection volume was 0.1 mL at each site. Each mouse received 200 μg of MOG35-55.
Within 2 hours of the injection of emulsion, and then again 24 hours after the injection of emulsion, the pertussis toxin component of the kit was administered intraperitoneally. The pertussis toxin (lot #1008, Hooke Laboratories) was administered at 90 ng/dose for both injections and the volume of each injection was 0.1 mL.
Animals were scored daily starting from Day 7 to the end of the study. Scoring was performed blind, by a person unaware of both treatment and of previous scores for each mouse. In-between scores were assigned when the clinical signs fell between two above defined scores.
On Day 28, blood was collected from all mice into gel clot activator tubes and allowed to clot at room temperature for ˜30 minutes. Blood is then centrifuged at ˜10000 g for 5 minutes. Serum was transferred into Eppendorf tubes and stored at −80° C. until shipment to Quanterix™. Serum Neurofilament light (NF-L) protein levels were quantified using Simoa® NF-light Advantage kit, a digital immunoassay for the quantitative determination of NF-L in serum, plasma and CSF. The used antibodies (Uman Diagnostics, Umea Sweden) also cross react with murine, bovine and macaque NF-L epitopes and as such, this assay can be used for research with these species. All samples were tested in duplicate at a dilution factor of 40×. […]

[5] = biological target: T1, soluble HLA-DRB1*04:01 human MHC II protein (human); assay: soluble-phase competition vs biotin-labelled control peptide, Eu3+-streptavidin time-resolved fluorescence
T1 construct: Soluble protein purchased from the Benaroya Research Institute; also called HLA-DR4; DR4

[6] = biological target: T2, soluble HLA-DRB1*03:01 human MHC II protein (human); assay: as above
T2 construct: Soluble protein purchased from the Benaroya Research Institute; also called HLA-DR3; DR3

QYRLRGKLRAEIENLHRTFDPHFLRVPCWKITLFVIVPVLGP [long C-WT, reference compound]
specific secretion of cytokine (IL-5) [1]: specific secretion

HCPYCVRYFLRVPSWKITLF [P2]
generation of peptide-specific CD4+ T cell lines from MS patients ([2]; naive CD4+ T cells co-cultured with autologous mDC or LCL in presence of peptide): able to generate P2-specific CD4+ T cell lines from four different MS patients
frequency of effector cells (CD3+CD4+CD154+) ([2]; patients' CD4+ cell lines, overnight co-culture with autologous LCL with peptide vs no peptide): high frequency
specific secretion of cytokines (IL-5 and IL-13) ([1]; culture supernatant of MS026 CD4+ cell line (S11)): specific secretion

HCPYCGWYRSPFSRVVHLYR [IMCY-0189]
mortality [3]: No mice died
AUC (area under the curve) of EAE scores ([3]; vs Alum group): statistically significantly improved
MMS (mean maximal score) ([3]; vs Alum group): statistically significantly improved
disease onset ([3]; vs Alum group): statistically significantly improved
end score ([3]; vs Alum group): statistically significantly improved
level of demyelination (anti-MBP stained spinal cord sections) ([3]; vs Alum group): statistically significantly reduced level
level of inflammation (inflammatory foci, H&E stained spinal cord sections) ([3]; vs Alum group): statistically significantly reduced level
plasma NF-L levels ([3]; at termination, vs Alum group): statistically significantly reduced
mortality ([4]; to day 28): No mice died
AUC (area under the curve) of EAE scores ([4]; vs Saline group): statistically significant reduced
MMS (mean maximal score) ([4]; vs Saline group): statistically significant reduced
disease onset ([4]; vs Saline group): postponed
level of demyelination (anti-MBP stained spinal cord sections) ([4]; vs Saline group): statistically significantly reduced level
level of inflammation (inflammatory foci, H&E stained spinal cord sections) ([4]; vs Saline group): statistically significantly reduced level
serum NF-L levels ([4]; Day 28, vs Saline group): statistically significant reduced
end score ([4]; EAE score 0-5, vs Saline group): reduced

DPHFLRVPCWKITLFKK [short C-WT, reference compound]
specific induction of effector cells (CD3+CD4+CD154+) ([2]; P4-specific CD4+ cell lines of patients MS017 (S14) and MS026 (S13), overnight co-culture): specific induction
specific secretion of cytokine (IL-5) [1]: specific secretion

KHCPYCGGFLRVPSWKITLFKK (P4 with the linker VRY replaced by GG) [P11 peptide KHCPYCGGFLRVPSWKITLFKK]
binding result [5]: binds
binding result [6]: binds

HCHGCVRYFLRVPCWKI (P1 with the linker GG replaced by VRY) [P6 peptide HCHGCVRYFLRVPCWKI]
binding result [5]: binds
binding result [6]: binds

B1: P9 peptide KCRCVRYFLRVPSWKITLFKK (peptide)
peptide: KCRCVRYFLRVPSWKITLFKK
notes: P4 with the motif KHCPYC replaced by KCRC
binding result [5]: binds
binding result [6]: binds

B2: P1 peptide HCHGCGGFLRVPCWKI (peptide)
peptide: HCHGCGGFLRVPCWKI
notes: Synthetic; disclosed in WO2017182528; also called control P1 peptide; prior art peptide P1
binding result [5]: binds
binding result [6]: binds

KHCPYCVRYFLRVPSWKITLFKK (Synthetic) [P4 peptide KHCPYCVRYFLRVPSWKITLFKK]
binding result [5]: binds
binding result [6]: binds

B3: P8 peptide KHCHGCVRYFLRVPSWKITLFKK (peptide)
peptide: KHCHGCVRYFLRVPSWKITLFKK
notes: P4 with the motif KHCPYC replaced by KHCHGC
binding result [5]: binds
binding result [6]: binds

B4: P10 peptide KCRPYCVRYFLRVPSWKITLFKK (peptide)
peptide: KCRPYCVRYFLRVPSWKITLFKK
notes: P4 with the motif KHCPYC replaced by KCRPYC
binding result [5]: binds
binding result [6]: binds

KHCPYCVRYFLRVPCWKITLFKK (Synthetic) [P5 peptide KHCPYCVRYFLRVPCWKITLFKK]
binding result [5]: binds
binding result [6]: binds

B5: P7 peptide HCPYCGGFLRVPCWKI (peptide)
peptide: HCPYCGGFLRVPCWKI
notes: P1 with the motif HCHGC replaced by HCPYC
binding result [5]: binds
binding result [6]: binds
